According to PMC12396409, “Screening and hit evaluation of a microbial metabolite library against the pathogenic Plasmodium falciparum and Toxoplasma gondii parasites” (International Journal for Parasitology: Drugs and Drug …, 2025):
Where two headings read alike, the source gives them in different places.

Experiments:
[1] = system: P. falciparum 3D7 parasites; assay: P. falciparum growth inhibition assay, 1-cycle (72 h treatment), SYBR DNA staining (library screen at 2 μg/mL and dose-response); assay type: cell-based, Plasmodium falciparum; conditions: 72 h; for activity at 2 µg/mL: Plasmodium falciparum
[2] = system: P. falciparum 3D7 parasites; assay: P. falciparum growth inhibition assay, 2-cycle (120 h treatment), delayed-death screen and dose-response; assay type: cell-based, Plasmodium falciparum; conditions: 120 h; for activity at 2 µg/mL: Plasmodium falciparum
[3] = system: T. gondii RH strain (RH-Tub-eYFP) tachyzoites; assay: microbe, parasite or virus in culture; assay type: cell-based, Toxoplasma gondii; conditions: 72 h, 72 h; for percent parasite growth at 2 µg/mL: Toxoplasma gondii
[4] = 3D7, P. falciparum, screen at 2 μg/mL, replicate 1, read-out: Pf_72h_%Growth_Rep1
[5] = 3D7, P. falciparum, screen at 2 μg/mL, replicate 2, read-out: Pf_72h_%Growth_Rep2
[6] = 3D7, P. falciparum, screen at 2 μg/mL, replicate 1, read-out: Pf_120h_%Growth_Rep1
[7] = 3D7, P. falciparum, screen at 2 μg/mL, replicate 2, read-out: Pf_120h_%Growth_Rep2
[8] = T. gondii, screen at 2 μg/mL, replicate 1, read-out: Tg_72h_%Growth_Rep1
[9] = T. gondii, screen at 2 μg/mL, replicate 2, read-out: Tg_72h_%Growth_Rep2
[10] = library screen at 2 μg/mL, % growth, replicate 1, read-out: Tg_72h_%Growth_Rep1
[11] = library screen at 2 μg/mL, % growth, replicate 2, read-out: Tg_72h_%Growth_Rep2
[12] = 3D7, library screen at 2 μg/mL, % growth, replicate 1, read-out: Pf_72h_%Growth_Rep1
[13] = 3D7, library screen at 2 μg/mL, % growth, replicate 2, read-out: Pf_72h_%Growth_Rep2
[14] = 3D7, library screen at 2 μg/mL, % growth, replicate 1, read-out: Pf_120h_%Growth_Rep1
[15] = 3D7, library screen at 2 μg/mL, % growth, replicate 2, read-out: Pf_120h_%Growth_Rep2
[16] = P. falciparum, screen at 2 μg/mL, replicate 1
[17] = P. falciparum, screen at 2 μg/mL, replicate 2
[18] = library screen at 2 μg/mL, % growth, replicate 1
[19] = library screen at 2 μg/mL, % growth, replicate 2

Q: With `COC(=O)[C@]1(Cc2ccc3c(c2)C[C@H](O)C(C)(C)O3)OC(=O)C(O)=C1c1ccc(O)cc1` [Butyrolactone V] as the compound, how does the activity at 2 µg/mL [1, 4] read?
A: 83.9%

Q: And the activity at 2 µg/mL [1, 5]?
A: 90.6%

Q: And the activity at 2 µg/mL [2, 6]?
A: 100%

Q: What about the activity at 2 µg/mL [2, 7] of the same compound?
A: 94.5%

Q: What about the percent parasite growth at 2 µg/mL [3, 8] of the same compound?
A: 130%

Q: And the percent parasite growth at 2 µg/mL [3, 9]?
A: 90%

Q: `COc1cccc2c1C(=O)c1c(O)c3c(c(O)c1C2=O)C[C@@](O)(C(=O)CO)C[C@@H]3O[C@H]1C[C@H](N)[C@H](O)[C@H](C)O1` [Doxorubicin] was tested. Which activity at 2 µg/mL ([1]; 3D7, 72 h, library screen at 2 μg/mL, % growth, replicate 1, read-out: Pf_72h_%Growth_Rep1) did it give?
A: 51.3%

Q: And the activity at 2 µg/mL ([1]; 3D7, 72 h, library screen at 2 μg/mL, % growth, replicate 2, read-out: Pf_72h_%Growth_Rep2)?
A: 57.9%

Q: What about the activity at 2 µg/mL ([2]; 3D7, 120 h, library screen at 2 μg/mL, % growth, replicate 1, read-out: Pf_120h_%Growth_Rep1) of the same compound?
A: 15.8%

Q: And the activity at 2 µg/mL ([2]; 3D7, 120 h, library screen at 2 μg/mL, % growth, replicate 2, read-out: Pf_120h_%Growth_Rep2)?
A: 35.7%

Q: What about the percent parasite growth at 2 µg/mL [3, 10] of the same compound?
A: 214%

Q: And the percent parasite growth at 2 µg/mL [3, 11]?
A: 123%

Q: `CC[C@H]1OC(=O)C[C@@H](O)[C@H](C)[C@@H](O[C@@H]2O[C@H](C)[C@@H](O)[C@H](N(C)C)[C@H]2O)[C@@H](CCN2CCCCC2)C[C@@H](C)C(=O)/C=C/C(C)=C/[C@@H]1CN1CCCCC1` [Tildipirosin] was tested. Which activity at 2 µg/mL [1, 4] did it give?
A: 10.8%

Q: And the activity at 2 µg/mL [1, 5]?
A: 5.94%

Q: What about the activity at 2 µg/mL [2, 6] of the same compound?
A: 9.99%

Q: And the activity at 2 µg/mL [2, 7]?
A: 11.7%

Q: And the percent parasite growth at 2 µg/mL ([3]; read-out: Tg_72h_%Growth_Rep1)?
A: 87.8%

Q: What about the percent parasite growth at 2 µg/mL ([3]; read-out: Tg_72h_%Growth_Rep2) of the same compound?
A: 85.6%

Q: Which results are given for `COC1=C2C[C@@H](C)C[C@H](OC)[C@H](O)[C@@H](C)/C=C(\C)[C@H](OC(N)=O)[C@@H](OC)/C=C\C=C(/C)C(=O)NC(=CC1=O)C2=O` [Geldanamycin]?
A: activity at 2 µg/mL [1, 12]: 5.26%; activity at 2 µg/mL [1, 13]: 2.63%; activity at 2 µg/mL [2, 14]: 25.5%; activity at 2 µg/mL [2, 15]: 11.8%; percent parasite growth at 2 µg/mL [3, 10]: 24.8%; percent parasite growth at 2 µg/mL [3, 11]: 24.3%

Q: What does the source list for `COc1cc(C)c(C(=O)Oc2cc(C)c(C(=O)O)c(O)c2C)c(OC)c1C` [Diffractaic acid]?
A: activity at 2 µg/mL [1, 12]: 80.1%; activity at 2 µg/mL [1, 13]: 79.9%; activity at 2 µg/mL [2, 14]: 91.2%; activity at 2 µg/mL [2, 15]: 81.2%; percent parasite growth at 2 µg/mL [3, 10]: 133%; percent parasite growth at 2 µg/mL [3, 11]: 97.5%

Q: `CCCCCCCCCCCCCCCC(=O)OC[C@@H](NC(=O)C(Cl)Cl)[C@H](O)c1ccc([N+](=O)[O-])cc1` [Chloramphenicol palmitate] was tested. Which activity at 2 µg/mL [1, 4] did it give?
A: 83.7%

Q: And the activity at 2 µg/mL [1, 5]?
A: 81.8%

Q: What about the activity at 2 µg/mL [2, 6] of the same compound?
A: 101%

Q: And the activity at 2 µg/mL [2, 7]?
A: 90.8%

Q: What about the percent parasite growth at 2 µg/mL [3, 8] of the same compound?
A: 153%

Q: And the percent parasite growth at 2 µg/mL [3, 9]?
A: 98.2%

Q: How did the Pf_72h_%Growth_Rep1 [1, 16] turn out when `COC(=O)[C@]1(Cc2ccc(O)cc2)OC(=O)C(O)=C1c1ccc(O)cc1` [Butyrolactone II] was run?
A: 83.73%

Q: And the Pf_72h_%Growth_Rep2 [1, 17]?
A: 86.44%

Q: And the Pf_120h_%Growth_Rep1 [2, 16]?
A: 89.95%

Q: And the Pf_120h_%Growth_Rep2 [2, 17]?
A: 95.11%

Q: What about the Tg_72h_%Growth_Rep1 ([3]; T. gondii, screen at 2 μg/mL, replicate 1) of the same compound?
A: 129.35%

Q: And the Tg_72h_%Growth_Rep2 ([3]; T. gondii, screen at 2 μg/mL, replicate 2)?
A: 92.93%

Q: Which results are given for `CO[C@H]1C[C@H](O[C@@H]2/C(C)=C/C[C@@H]3C[C@@H](C[C@]4(C=C[C@H](C)[C@@H](C5CCCCC5)O4)O3)OC(=O)[C@@H]3C=C(C)[C@@H](O)[C@H]4OC/C(=C\C=C\[C@@H]2C)[C@]43O)O[C@@H](C)[C@@H]1O` [Doramectin monosaccharide]?
A: Pf_72h_%Growth_Rep1 [1, 18]: 77.72%; Pf_72h_%Growth_Rep2 [1, 19]: 82.97%; Pf_120h_%Growth_Rep1 [2, 18]: 94.58%; Pf_120h_%Growth_Rep2 [2, 19]: 82.00%; Tg_72h_%Growth_Rep1 [3, 18]: 100.60%; Tg_72h_%Growth_Rep2 [3, 19]: 107.16%

Q: With `CSC[S@+]([O-])C[C@H](CO)NC(=O)/C=C/c1c(C)[nH]c(=O)[nH]c1=O` [Sparsomycin] as the compound, how does the activity at 2 µg/mL ([1]; 3D7, 72 h, P. falciparum, parasite screen 2 μg/mL, % growth, replicate 1, read-out: Pf_72h_%Growth_Rep1) read?
A: 4.3%

Q: And the activity at 2 µg/mL ([1]; 3D7, 72 h, P. falciparum, parasite screen 2 μg/mL, % growth, replicate 2, read-out: Pf_72h_%Growth_Rep2)?
A: -1%

Q: And the activity at 2 µg/mL ([2]; 3D7, 120 h, P. falciparum, parasite screen 2 μg/mL, % growth, replicate 1, read-out: Pf_120h_%Growth_Rep1)?
A: 10.1%

Q: And the activity at 2 µg/mL ([2]; 3D7, 120 h, P. falciparum, parasite screen 2 μg/mL, % growth, replicate 2, read-out: Pf_120h_%Growth_Rep2)?
A: -13.2%

Q: What about the percent parasite growth at 2 µg/mL ([3]; T. gondii, parasite screen 2 μg/mL, % growth, replicate 1, read-out: Tg_72h_%Growth_Rep1) of the same compound?
A: 2.81%

Q: What about the percent parasite growth at 2 µg/mL ([3]; T. gondii, parasite screen 2 μg/mL, % growth, replicate 2, read-out: Tg_72h_%Growth_Rep2) of the same compound?
A: 27.9%
